Consider 20 compounds from patent US20190330226A1, “POSITIVE ALLOSTERIC MODULATORS OF THE MUSCARINIC ACETYLCHOLINE RECEPTOR M1” (Vanderbilt University, priority 2018, published 2019).

A word on the Emax: it is the size of the effect at its maximum, as opposed to the concentration needed. For orientation: EC50 means the concentration giving half of the maximal effect.

In the test the target is T1, human mAChR M1 (Homo sapiens, UniProt P11229).
T1 construct: host or cells: CHO-K1 (ATCC), stably transfected using Lipofectamine 2000
T1 sequence (P11229 1-460): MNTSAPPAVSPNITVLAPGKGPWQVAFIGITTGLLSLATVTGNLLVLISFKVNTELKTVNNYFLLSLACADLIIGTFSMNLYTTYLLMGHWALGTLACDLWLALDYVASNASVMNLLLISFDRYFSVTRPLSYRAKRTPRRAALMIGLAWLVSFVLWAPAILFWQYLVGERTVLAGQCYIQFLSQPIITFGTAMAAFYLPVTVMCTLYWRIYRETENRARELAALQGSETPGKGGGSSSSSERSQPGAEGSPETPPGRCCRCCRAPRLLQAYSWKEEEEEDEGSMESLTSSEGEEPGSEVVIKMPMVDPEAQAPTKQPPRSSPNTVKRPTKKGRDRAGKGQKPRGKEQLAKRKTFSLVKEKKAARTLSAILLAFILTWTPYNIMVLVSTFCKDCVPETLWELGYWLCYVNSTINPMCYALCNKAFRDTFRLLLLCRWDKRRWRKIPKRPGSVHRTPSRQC
Put plainly: mAChR M1 cell-based functional assay (calcium mobilization, Fluo-4, FDSS). The following applies: CHO-K1 cells stably expressing hM1, calcium flux; for Emax: PAM mode with EC20 acetylcholine; for EC50: concentration-dependent increase in the EC20 acetylcholine response. The source says: Chinese hamster ovary (CHO-K1) cells stably expressing rat (r)M1 were purchased from the American Type Culture Collection and cultured according to their indicated protocol. CHO cells stably expressing human (h)M2, hM3, and hM5 were described previously (Levey, et al., 1991); hM1 and hM4 cDNAs were purchased from Missouri S&T cDNA Resource; rM4 cDNA was provided by T. I. Bonner (National Institutes of Health, Bethesda, Md.). rM2 and rM3 were cloned from a rat brain cDNA library and sequence verified. hM1, rM2, rM3, hM4, and rM4 cDNAs were used to stably transfect CHO-K1 cells purchased from the American Type Culture Collection using Lipofectamine 2000. To make stable rM2, hM2, rM3, hM4, and rM4 cell lines for use in calcium mobilization assays, these cells also were stably transfected with a chimeric G-protein (Gqi5) (provided by B. R. Conklin, University of California, San Francisco) using Lipofectamine 2000. rM1, hM1, rM3, hM3, rM5, and hM5 cells were grown in Ham's F-12 medium containing 10% heat-inactivated fetal bovine serum (FBS), 20 mM HEPES, and 50 µg/mL G418 sulfate. rM2-Gqi5, hM2-Gqi5, and hM4-Gqi5 cells were grown in the same medium also containing 500 μg/mL Hygromycin B. Stable rM4-Gqi5 cells were grown in DMEM containing 10% heat-inactivated FBS, 20 mM HEPES, 400 μg/mL G418 sulfate, and 500 μg/mL Hygromycin B.
For high throughput measurement of agonist-evoked increases in intracellular calcium, CHO-K1 cells stably expressing muscarinic receptors were plated in growth medium lacking G418 and hygromycin at 15,000 cells/20 μL/well in Greiner 384-well black-walled, tissue culture (TC)-treated, clear-bottom plates (VWR). Cells were incubated overnight at 37° C. and 5% CO2. The next day, cells were washed using an ELX 405 (BioTek) with four washes ([…]) of assay buffer then aspirated to 20 μL. Next, 20 μL of 16 μM Fluo-4/acetoxymethyl ester (Invitrogen, Carlsbad, Calif.) prepared as a 2.3 mM stock in DMSO and mixed in a 1:1 ratio with 10% (w/v) Pluronic F-127 and diluted in assay buffer was added to the wells and the cell plates were incubated for 50 min at 37° C. and 5% CO2. Dye was removed by washing with the ELX 405 (four 80 μL washes of assay buffer) then aspirated to 20 μL. Compound master plates were formatted in an 11 point CRC format (1:3 dilutions) in 100% DMSO with a starting concentration of 10 mM using the BRAVO liquid handler (Agilent). Test compound CRCs were then transferred to daughter plates (240 nL) using the Echo acoustic plate reformatter (Labcyte, Sunnyvale, Calif.) and then diluted into assay buffer (40 μL) to a 2× stock using a Thermo Fisher Combi (Thermo Fisher Scientific, Waltham, Mass.).
Calcium flux was measured using the Functional Drug Screening System (FDSS) 6000 (Hamamatsu Corporation, Tokyo, Japan) as an increase in the fluorescent static ratio. Compounds were applied to cells (20 μL, 2×) using the automated system of the FDSS 6000 at 4 s into the 300 s protocol and the data were collected at 1 Hz. At 144 s into the 300s protocol, 10 μL of an EC20 concentration of the muscarinic receptor agonist acetylcholine was added (5×), followed by the addition of 12 μL an EC80 concentration of acetylcholine at the 230 s time point (5×). Agonist activity was analyzed as a concentration-dependent increase in calcium mobilization upon compound addition. Positive allosteric modulator activity was analyzed as a concentration-dependent increase in the EC20 acetylcholine response. Antagonist activity was analyzed as a concentration-dependent decrease in the EC80 acetylcholine response. Concentration-response curves were generated using a four-parameter logistical equation in XLfit curve fitting software (IDBS, Bridgewater, N.J.) for Excel (Microsoft, Redmond, Wash.) or Prism (GraphPad Software, Inc., San Diego, Calif.).
Activity (EC50 and Emax) was determined in the mAChR M1 cell-based functional assay as described above and the data are shown in Table 2. […]

For the compound `Cn1cc2c(-c3cc(F)c(CN4Cc5sccc5C4=O)c(F)c3)cccc2n1` [Compound 1, 5-(2,6-difluoro-4-(2-methyl-2H-indazol-4-yl)benzyl)-5,6-dihydro-4H-thieno[2,3-c]pyrrol-4-one], the Emax came to 84% and the concentration giving a half-maximal response (EC50) stood at 1590 nM. In the same order, the values of `Cn1cc2c(-c3cc(F)c(CN4Cc5ccsc5C4=O)c(F)c3)cccc2n1` [Compound 2, 5-(2,6-difluoro-4-(2-methyl-2H-indazol-4-yl)benzyl)-4,5-dihydro-6H-thieno[2,3-c]pyrrol-6-one] are 70% and 1260 nM. Regarding `Cn1cc2c(-c3cc(F)c(CN4Cc5nc[nH]c5C4=O)c(F)c3)cccc2n1` [Compound 3, 5-(2,6-difluoro-4-(2-methyl-2H-indazol-4-yl)benzyl)-5,6-dihydropyrrolo[3,4-d]imidazol-4(3H)-one], the Emax was determined as 78%. For `Cn1cc2c(-c3cc(F)c(CN4Cc5ccn(C)c5C4=O)c(F)c3)cccc2n1` [Compound 4, 5-(2,6-difluoro-4-(2-methyl-2H-indazol-4-yl)benzyl)-1-methyl-4,5-dihydropyrrolo[3,4-b]pyrrol-6(1H)-one], the Emax was 36% and the half-maximal effective concentration (EC50) was 1880 nM. For the compound `Cn1cc2c(-c3cc(F)c(CN4Cc5ncsc5C4=O)c(F)c3)cccc2n1` [Compound 5, 5-(2,6-difluoro-4-(2-methyl-2H-indazol-4-yl)benzyl)-4,5-dihydro-6H-pyrrolo[3,4-d]thiazol-6-one], the Emax stood at 73%.

Consider `Cn1cc2c(-c3cc(F)c(CN4Cc5cnn(Cc6ccccn6)c5C4=O)c(F)c3)cccc2n1` [Compound 6, 5-(2,6-Difluoro-4-(2-methyl-2H-indazol-4-yl)benzyl)-1-(pyridin-2-ylmethyl)-4,5-dihydropyrrolo[3,4-c]pyrazol-6(1H)-one], for which the maximal effect (Emax) was found to be 63%. Take `COc1ccc(Cn2ncc3c2C(=O)N(Cc2c(F)cc(-c4cccc5nn(C)cc45)cc2F)C3)cc1` [Compound 6.1, 5-(2,6-difluoro-4-(2-methyl-2H-indazol-4-yl)benzyl)-1-(4-methoxybenzyl)-4,5-dihydropyrrolo[3,4-c]pyrazol-6(1H)-one]: the maximal effect (Emax) was 45% and the concentration giving a half-maximal response (EC50) turned out to be 4370 nM. On to `Cn1cc2c(-c3cc(F)c(CN4Cc5cn[nH]c5C4=O)c(F)c3)cccc2n1` [Compound 6.2, 5-(2,6-difluoro-4-(2-methyl-2H-indazol-4-yl)benzyl)-4,5-dihydropyrrolo[3,4-c]pyrazol-6(1H)-one], for which the Emax stood at 87%.

As to `Cn1cc2c(-c3cc(F)c(CN4Cc5cn(Cc6ccccn6)nc5C4=O)c(F)c3)cccc2n1` [Compound 7, 5-(2,6-difluoro-4-(2-methyl-2H-indazol-4-yl)benzyl)-2-(pyridin-2-ylmethyl)-4,5-dihydropyrrolo[3,4-c]pyrazol-6(2H)-one], the Emax was determined as 46%. As for `Cn1cc2cc(-c3cc(F)c(CN4Cc5ccn(CC6CCCO6)c5C4=O)c(F)c3)ccc2n1` (stereo not shown) [Compound 8, 5-(2,6-difluoro-4-(2-methyl-2H-indazol-5-yl)benzyl)-1-((tetrahydrofuran-2-yl)methyl)-4,5-dihydropyrrolo[3,4-b]pyrrol-6(1H)-one], the Emax came out at 33% and the half-maximal effective concentration (EC50) came to 3850 nM.

Take `Cn1cc2c(-c3cc(F)c(CN4Cc5cc[nH]c5C4=O)c(F)c3)cccc2n1` [Compound 9, 5-(2,6-difluoro-4-(2-methyl-2H-indazol-4-yl)benzyl)-4,5-dihydropyrrolo[3,4-b]pyrrol-6(1H)-one]: the Emax is 36% and the EC50 is 1880 nM. For the compound `CCCn1ccc2c1C(=O)N(Cc1c(F)cc(-c3cccc4nn(C)cc34)cc1F)C2` [Compound 10, 5-(2,6-difluoro-4-(2-methyl-2H-indazol-4-yl)benzyl)-1-propyl-4,5-dihydropyrrolo[3,4-b]pyrrol-6(1H)-one], the maximal response (Emax) is 59%.

In the case of `Cn1cc2c(-c3cc(F)c(CN4Cc5ccn(CCN6CCCC6)c5C4=O)c(F)c3)cccc2n1` [Compound 11, 5-(2,6-difluoro-4-(2-methyl-2H-indazol-4-yl)benzyl)-1-(2-(pyrrolidin-1-yl)ethyl)-4,5-dihydropyrrolo[3,4-b]pyrrol-6(1H)-one], the Emax was 57% and the EC50 came to 2920 nM. As for `Cn1cc(-c2ccc(CN3Cc4ncsc4C3=O)c(F)c2)cn1` [Compound 12, 5-(2-fluoro-4-(1-methyl-1H-pyrazol-4-yl)benzyl)-4,5-dihydro-6H-pyrrolo[3,4-d]thiazol-6-one], the Emax amounted to 47%.

For `Cn1cc2cc(-c3ccc(CN4Cc5ncsc5C4=O)c(F)c3)ccc2n1` [Compound 13, 5-(2-fluoro-4-(2-methyl-2H-indazol-5-yl)benzyl)-4,5-dihydro-6H-pyrrolo[3,4-d]thiazol-6-one], the Emax is 51% and the 50% effective concentration (EC50) turned out to be 1850 nM.

Turning to `Cn1cc(-c2cc(F)c(CN3Cc4ncsc4C3=O)c(F)c2)cn1` [Compound 14, 5-(2,6-difluoro-4-(1-methyl-1H-pyrazol-4-yl)benzyl)-4,5-dihydro-6H-pyrrolo[3,4-d]thiazol-6-one], the Emax is 40%. On to `O=C1c2scnc2CN1Cc1c(F)cc(-c2ccc3nccn3c2)cc1F` [Compound 15, 5-(2,6-difluoro-4-(imidazo[1,2-a]pyridin-6-yl)benzyl)-4,5-dihydro-6H-pyrrolo[3,4-d]thiazol-6-one], for which the maximum response (Emax) was determined as 55%. Regarding `Cn1cc2c(-c3cc(F)c(CN4Cc5cnn(CC6CCCO6)c5C4=O)c(F)c3)cccc2n1` (stereo not shown) [Compound 16, 5-(2,6-difluoro-4-(2-methyl-2H-indazol-4-yl)benzyl)-1-((tetrahydrofuran-2-yl)methyl)-4,5-dihydropyrrolo[3,4-c]pyrazol-6(1H)-one], the Emax was 93% and the half-maximal effective concentration (EC50) is 920 nM. For `Cn1cc2c(-c3cc(F)c(CN4Cc5cn(CC6CCCO6)nc5C4=O)c(F)c3)cccc2n1` (stereo not shown) [Compound 17, 5-(2,6-difluoro-4-(2-methyl-2H-indazol-4-yl)benzyl)-2-((tetrahydrofuran-2-yl)methyl)-4,5-dihydropyrrolo[3,4-c]pyrazol-6(2H)-one] the same measures were 58% and 3410 nM. In the same order, the values of `COCCn1ncc2c1C(=O)N(Cc1c(F)cc(-c3cccc4nn(C)cc34)cc1F)C2` [Compound 18, 5-(2,6-difluoro-4-(2-methyl-2H-indazol-4-yl)benzyl)-1-(2-methoxyethyl)-4,5-dihydropyrrolo[3,4-c]pyrazol-6(1H)-one] are 87% and 3100 nM.
